The record followed here is ChEMBL document CHEMBL1122535, “Mesoionic pyridazine ribonucleosides. A novel biologically active nucleoside metabolite” (1984).

Converted amounts (≈) assume the structure as drawn.

For assay [1], the system named is Escherichia coli. The assay is described as follows: Minimum inhibitory concentration against Escherichia coli (EC) in Davis minimal media under Aerobic conditions(in vitro). It is filed as functional.
In assay [2] the test system is Escherichia coli. The assay is described as follows: Minimum inhibitory concentration against Escherichia coli (EC) in Davis minimal media under Anaerobic conditions(in vitro). The format is functional.
The test system of assay [3] is Escherichia coli. The assay is described as follows: Minimum inhibitory concentration against Escherichia coli (EC) in Davis minimal media under aerobic conditions(in vitro); No indication of toxicity. It is filed as functional, organism-based.
In assay [4] the test system is Escherichia coli. The assay is described as follows: Minimum inhibitory concentration against Escherichia coli (EC) in Davis minimal media under Anaerobic conditions(in vitro); No indication of toxicity. It is filed as functional, organism-based.

The MIC is the lowest concentration that inhibits growth of the organism. Turning to `CC(=O)OC[C@H]1O[C@@H]([n+]2ccc(Cl)c([O-])n2)[C@H](O)[C@@H]1O`, the MIC in assay [1] and in assay [2] was 25 µg/mL (≈ 82.1 µM) in each case.
For the compound `CC(=O)OC[C@H]1O[C@@H]([n+]2ccc(C#N)c([O-])n2)[C@H](O)[C@@H]1O`, the MIC in assay [1] was found to be 100 µg/mL (≈ 339 µM).
As to `NC(=O)c1cc[n+]([C@@H]2O[C@H](CO)[C@@H](O)[C@H]2O)nc1[O-]`, the MIC entry in assay [3] and in assay [4] was “No indication of toxicity” each time.
The compound `N.[O-]c1n[n+]([C@@H]2O[C@H](CO)[C@@H](O)[C@H]2O)ccc1S` returned an MIC in assay [2] of 100 µg/mL.
On to `[O-]c1n[n+]([C@@H]2O[C@H](CO)[C@@H](O)[C@H]2O)ccc1Cl`, for which the MIC in assay [1] and in assay [2] was 0.2 µg/mL (≈ 0.761 µM) throughout.
Take `N#Cc1cc[n+]([C@@H]2O[C@H](CO)[C@@H](O)[C@H]2O)nc1[O-]`: the MIC was 0.78 µg/mL (≈ 3.08 µM) in assay [1] and 3.1 µg/mL (≈ 12.2 µM) in assay [2].
For the compound `Nc1cc[n+]([C@@H]2O[C@H](CO)[C@@H](O)[C@H]2O)nc1[O-]`, the minimum inhibitory concentration (MIC) in assay [2] turned out to be 100 µg/mL (≈ 411 µM).
In assay [2], `COc1cc[n+]([C@@H]2O[C@H](CO)[C@@H](O)[C@H]2O)nc1[O-]` had an MIC of 100 µg/mL (≈ 387 µM).
